In the supplement of paper PMC10307832:

What was measured:
Experiment in all cases: relative viability (nuclei count vs DMSO), 5 days (fraction); higher = more cells survive
[1] = compound: COc1cc(-c2nn([C@H]3CC[C@H](N4CCN(C(C)=O)CC4)CC3)c3ncnc(N)c23)ccc1NC(=O)c1cc2ccccc2n1C + Nc1ncn([C@H]2C[C@H](O)[C@@H](CO)O2)c(=O)n1 [Decitabine] (partner 2 µM)
In short: (§1)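 Cells from lung cancer lines were seeded into 1536-well plates and, one day later, dosed by pin tool. Treatments were either a single drug or a fixed dose of an anchor drug with five library-drug doses (not always all listed) in √10 steps. After 5 days, nuclei were stained in a one-step fixation (final 0.05% Triton X-100, 1% formaldehyde, 1 ug/ml Hoechst) and counted on 4× images, and relative viability is the treated-to-vehicle nuclei ratio, as the median of duplicate plates.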

Midostaurin + AZD7762 = compound: CO[C@@H]1[C@H](N(C)C(=O)c2ccccc2)C[C@H]2O[C@]1(C)n1c3ccccc3c3c4c(c5c6ccccc6n2c5c31)C(=O)NC4 [Midostaurin] + NC(=O)Nc1cc(-c2cccc(F)c2)sc1C(=O)N[C@H]1CCCNC1 [AZD7762] (partner 0.2 µM)
In short: as §1

Midostaurin + Alpelisib = compound: CO[C@@H]1[C@H](N(C)C(=O)c2ccccc2)C[C@H]2O[C@]1(C)n1c3ccccc3c3c4c(c5c6ccccc6n2c5c31)C(=O)NC4 [Midostaurin] + Cc1nc(NC(=O)N2CCC[C@H]2C(N)=O)sc1-c1ccnc(C(C)(C)C(F)(F)F)c1 [Alpelisib] (partner 2 µM)
In short: as §1

[2] = compound: CO[C@@H]1[C@H](N(C)C(=O)c2ccccc2)C[C@H]2O[C@]1(C)n1c3ccccc3c3c4c(c5c6ccccc6n2c5c31)C(=O)NC4 [Midostaurin] + CC(=O)c1c(C)c2cnc(Nc3ccc(N4CCNCC4)cn3)nc2n(C2CCCC2)c1=O [Palbociclib] (partner 0.5 µM)
In short: as §1

[3] = compound: COc1cc(-c2nn([C@H]3CC[C@H](N4CCN(C(C)=O)CC4)CC3)c3ncnc(N)c23)ccc1NC(=O)c1cc2ccccc2n1C + C[C@@H](Oc1cc(-c2cnn(C3CCNCC3)c2)cnc1N)c1c(Cl)ccc(F)c1Cl [Crizotinib] (partner 1 µM)
In short: as §1

Row | Cell Line | relative viability ([1]; first compound 0.0128 µM) | relative viability ([1]; first compound 0.04048 µM) | relative viability ([1]; first compound 0.128 µM) | relative viability ([1]; first compound 1.28 µM) | relative viability (Midostaurin + AZD7762; first compound 0.01 µM) | relative viability (Midostaurin + AZD7762; first compound 0.03162 µM) | relative viability (Midostaurin + AZD7762; first compound 0.1 µM) | relative viability (Midostaurin + AZD7762; first compound 0.3162 µM) | relative viability (Midostaurin + Alpelisib; first compound 0.01 µM) | relative viability (Midostaurin + Alpelisib; first compound 0.03162 µM) | relative viability (Midostaurin + Alpelisib; first compound 0.1 µM) | relative viability (Midostaurin + Alpelisib; first compound 0.3162 µM) | relative viability ([2]; first compound 0.01 µM) | relative viability ([2]; first compound 0.03162 µM) | relative viability ([2]; first compound 0.1 µM) | relative viability ([2]; first compound 0.3162 µM) | relative viability ([3]; first compound 0.0128 µM) | relative viability ([3]; first compound 0.04048 µM) | relative viability ([3]; first compound 0.128 µM) | relative viability ([3]; first compound 1.28 µM)
1 | NCI-H1793 | 0.55 | 0.468 | 0.509 | 0.364 | 0.395 | 0.48 | 0.388 | 0.213 | 0.705 | 0.601 | 0.664 | 0.662 | 0.305 | 0.349 | 0.354 | 0.342 | – | – | – | –
2 | NCI-H520 | 0.508 | 0.502 | 0.436 | 0.368 | – | – | – | – | 0.891 | 0.882 | 0.845 | 0.981 | 0.24 | 0.228 | 0.246 | 0.276 | 0.763 | 0.621 | 0.628 | 0.549
3 | A549 | 0.237 | 0.252 | 0.228 | 0.245 | – | – | – | – | 0.742 | 0.705 | 0.679 | 0.265 | – | – | – | – | 0.854 | 1.02 | 0.686 | 0.719
4 | NCI-H1563 | – | – | – | – | – | – | – | – | 1.09 | 1.07 | 0.907 | 0.78 | – | – | – | – | 0.625 | 0.805 | 0.926 | 0.729
5 | NCI-H1395 | 0.753 | 0.748 | 0.77 | 0.533 | 0.407 | 0.427 | 0.408 | 0.429 | 1.09 | 1.08 | 1.3 | 1.22 | 0.626 | 0.753 | 0.639 | 0.703 | – | – | – | –
6 | NCI-H2009 | 0.352 | 0.386 | 0.33 | 0.357 | – | – | – | – | 1.24 | 1.01 | 1.05 | 1.16 | 0.175 | 0.192 | 0.287 | 0.404 | 1.09 | 0.94 | 1.04 | 0.906
7 | NCI-H522 | 0.665 | 0.7 | 0.738 | 0.717 | 0.86 | 0.833 | 0.864 | 0.91 | – | – | – | – | 1.01 | 0.876 | 0.967 | 1.32 | – | – | – | –
8 | IA-LM | – | – | – | – | – | – | – | – | 0.853 | – | 0.821 | 0.891 | – | – | – | – | 1.02 | 1.07 | 0.903 | 1.1
9 | SK-LU-1 | 0.577 | 0.557 | 0.559 | 0.481 | – | – | – | – | 0.913 | 1.17 | 0.894 | 0.647 | 0.404 | 0.409 | 0.379 | 0.399 | 1 | 0.975 | 0.658 | 0.506
10 | NCI-H1703 | – | – | – | – | 0.141 | 0.115 | 0.123 | 0.12 | 0.343 | 0.369 | 0.27 | 0.209 | – | – | – | – | 0.585 | 0.73 | 0.496 | 0.206
11 | SW 900 | 0.524 | 0.381 | 0.507 | 0.52 | 0.755 | 0.684 | 0.617 | 0.476 | – | – | – | – | 0.574 | 0.587 | 0.545 | 0.639 | – | – | – | –
